Results taken from patent US10206394B2, “Herbicidal compounds” (Syngenta Participations AG, priority 2014, dated 2019).
Like-named read-outs stand apart in the source and are kept apart here.

Legend:
Experiment in all cases: Glasshouse assay for herbicidal activity (pre- and post-emergence), percentage phytotoxicity
Type in all cases: in vivo
[1] = tested on: Echinochloa crus-galli (ECHCG); conditions: Echinochloa crus-galli, 250 g/ha, visual assessment (100%=total damage, 0%=no damage)
How it was run: (§1)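 Pot-grown plants treated one day after sowing (pre-emergence) or at about 12 days (post-emergence); glasshouse at 24/18° C (warm) or 20/16° C (cool species) day/night, 16 h light, 65% humidity. Visual % phytotoxicity (0 = none, 100 = total damage) scored at 15 DAA post or 20 DAA pre.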

[2] = tested on: Avena fatua (AVEFA); conditions: Avena fatua, 250 g/ha, visual assessment (100%=total damage, 0%=no damage)
How it was run: as §1

[3] = tested on: Lolium perenne (LOLPE); conditions: Lolium perenne, 250 g/ha, visual assessment (100%=total damage, 0%=no damage)
How it was run: as §1

[4] = tested on: Alopecurus myosuroides (ALOMY); conditions: Alopecurus myosuroides, 250 g/ha, visual assessment (100%=total damage, 0%=no damage)
How it was run: as §1

[5] = post-emergence, 360 h, post-emergence, 15 DAA, read-out: Post-emergence herbicidal activity (percentage phytotoxicity) ECHCG POST
[6] = pre-emergence, 480 h, pre-emergence, 20 DAA, read-out: Pre-emergence herbicidal activity (percentage phytotoxicity) ECHCG PRE
[7] = post-emergence, 360 h, post-emergence, 15 DAA, read-out: Post-emergence herbicidal activity (percentage phytotoxicity) AVEFA POST
[8] = pre-emergence, 480 h, pre-emergence, 20 DAA, read-out: Pre-emergence herbicidal activity (percentage phytotoxicity) AVEFA PRE
[9] = post-emergence, 360 h, post-emergence, 15 DAA, read-out: Post-emergence herbicidal activity (percentage phytotoxicity) LOLPE POST
[10] = pre-emergence, 480 h, pre-emergence, 20 DAA, read-out: Pre-emergence herbicidal activity (percentage phytotoxicity) LOLPE PRE
[11] = post-emergence, 360 h, post-emergence, 15 DAA, read-out: Post-emergence herbicidal activity (percentage phytotoxicity) ALOMY POST
[12] = pre-emergence, 480 h, pre-emergence, 20 DAA, read-out: Pre-emergence herbicidal activity (percentage phytotoxicity) ALOMY PRE

Compound	pest or weed control at 250 g/ha [1, 5] [%]	pest or weed control at 250 g/ha [1, 6] [%]	pest or weed control at 250 g/ha [2, 7] [%]	pest or weed control at 250 g/ha [2, 8] [%]	pest or weed control at 250 g/ha [3, 9] [%]	pest or weed control at 250 g/ha [3, 10] [%]	pest or weed control at 250 g/ha [4, 11] [%]	pest or weed control at 250 g/ha [4, 12] [%]
C=CC1(NC(=O)CC2CC(=O)C(c3c(C)cc(C)cc3C)C2=O)CC1 (stereo not drawn) [Compound B62]	70	90	70	40	90	90	70	80
Cc1cc(C)c(C2C(=O)CC(CC(=O)NC(C)C(F)(F)F)C2=O)c(C)c1 (stereo not drawn) [Compound B63]	70	80	70	50	70	80	70	80
Cc1cc(C)c(C2C(=O)CC(CC(=O)Nc3ccccn3)C2=O)c(C)c1 (stereo not drawn) [Compound B64]	70	80	70	50	80	70	80	80
Cc1cc(C)c(C2C(=O)CC(CC(=O)NC(C)(C)C3CC3)C2=O)c(C)c1 (stereo not drawn) [Compound B65]	70	90	50	60	70	80	70	80
Cc1ccnc(CNC(=O)CC2CC(=O)C(c3c(C)cc(C)cc3C)C2=O)c1 (stereo not drawn) [Compound B66]	80	90	80	0	90	90	90	90
Cc1cc(C)c(C2C(=O)CC(CC(=O)NCc3ncccc3C)C2=O)c(C)c1 (stereo not drawn) [Compound B67]	80	90	80	10	70	90	90	90
Cc1cc(C)c(C2C(=O)CC(CC(=O)NCc3cccc(C)n3)C2=O)c(C)c1 (stereo not drawn) [Compound B68]	70	80	80	10	70	80	90	80
Cc1cc(C)c(C2C(=O)CC(CC(=O)NCc3ccc(C#N)cc3)C2=O)c(C)c1 (stereo not drawn) [Compound B69]	80	90	100	80	80	90	40	50
Cc1cc(-c2ncc(F)cc2F)cc(C)c1C1C(=O)CC(CC(=O)NCc2cccc(F)c2)C1=O (stereo not drawn) [Compound B70]	100	100	100	80	100	90	100	80
Cc1cc(-c2ncc(F)cc2F)cc(C)c1C1C(=O)CC(CC(=O)NCc2cc(F)cc(F)c2)C1=O (stereo not drawn) [Compound B71]	100	100	100	90	100	90	100	90
Cc1cc(-c2ncc(F)cc2F)cc(C)c1C1C(=O)CC(CC(=O)NCc2ccc(F)cc2)C1=O (stereo not drawn) [Compound B72]	100	100	100	70	100	100	100	100
Cc1cc(-c2ncc(F)cc2F)cc(C)c1C1C(=O)CC(CC(=O)NCc2ccc(F)c(F)c2)C1=O (stereo not drawn) [Compound B73]	100	100	100	90	100	90	100	90
Cc1cc(-c2ncccc2Cl)cc(C)c1C1C(=O)CC(CC(=O)NC(C)(C)C)C1=O (stereo not drawn) [Compound B74]	60	10	60	0	50	30	60	10
Cc1cc(-c2ccc(C#N)cn2)cc(C)c1C1C(=O)CC(CC(=O)NC(C)(C)C)C1=O (stereo not drawn) [Compound B75]	100	100	100	90	100	90	100	100
Cc1cc(C)c(C2C(=O)CC(CC(=O)NCC(CF)CF)C2=O)c(C)c1 (stereo not drawn) [Compound B76]	80	90	80	70	80	90	80	90
Cc1cc(-c2ncc(F)cc2F)cc(C)c1C1C(=O)CC(CC(=O)NCC2CC2(Cl)Cl)C1=O (stereo not drawn) [Compound B77]	100	100	100	90	100	100	100	90
Cc1cc(C)c(C2C(=O)CC(CC(=O)NC3(C4CC4)CC3)C2=O)c(C)c1 (stereo not drawn) [Compound B78]	90	90	80	40	80	90	80	80
CCCN(CC1CC1)C(=O)CC1CC(=O)C(c2c(C)cc(C)cc2C)C1=O (stereo not drawn) [Compound B79]	60	80	10	0	80	80	60	60
Cc1cc(C)c(C2C(=O)CC(CC(=O)N(C)C(C)(C)C)C2=O)c(C)c1 (stereo not drawn) [Compound B80]	90	90	60	0	90	100	80	90
Cc1cc(C)c(C2C(=O)CC(CC(=O)N[C@@H]3C[C@@H]3F)C2=O)c(C)c1 (stereo partly drawn) [Compound B81]	80	90	90	0	90	90	80	70
Cc1cc(C)c(C2C(=O)CC(CC(=O)NCC3(C)CC3(Cl)Cl)C2=O)c(C)c1 (stereo not drawn) [Compound B82]	50	90	60	40	70	80	70	70
